# Measurements published in US6838477B2, “Lactacystin analogs” (President and Fellows of Harvard College, priority 1995, dated 2005).
# Key:
# Calpain II = molecular target: T1, Calpain II (Homo sapiens, UniProt P17655); assay: Selectivity of protease inhibition: calpain II; assay type: biochemical; conditions: concentration not given
# T1 sequence (P17655 1-700): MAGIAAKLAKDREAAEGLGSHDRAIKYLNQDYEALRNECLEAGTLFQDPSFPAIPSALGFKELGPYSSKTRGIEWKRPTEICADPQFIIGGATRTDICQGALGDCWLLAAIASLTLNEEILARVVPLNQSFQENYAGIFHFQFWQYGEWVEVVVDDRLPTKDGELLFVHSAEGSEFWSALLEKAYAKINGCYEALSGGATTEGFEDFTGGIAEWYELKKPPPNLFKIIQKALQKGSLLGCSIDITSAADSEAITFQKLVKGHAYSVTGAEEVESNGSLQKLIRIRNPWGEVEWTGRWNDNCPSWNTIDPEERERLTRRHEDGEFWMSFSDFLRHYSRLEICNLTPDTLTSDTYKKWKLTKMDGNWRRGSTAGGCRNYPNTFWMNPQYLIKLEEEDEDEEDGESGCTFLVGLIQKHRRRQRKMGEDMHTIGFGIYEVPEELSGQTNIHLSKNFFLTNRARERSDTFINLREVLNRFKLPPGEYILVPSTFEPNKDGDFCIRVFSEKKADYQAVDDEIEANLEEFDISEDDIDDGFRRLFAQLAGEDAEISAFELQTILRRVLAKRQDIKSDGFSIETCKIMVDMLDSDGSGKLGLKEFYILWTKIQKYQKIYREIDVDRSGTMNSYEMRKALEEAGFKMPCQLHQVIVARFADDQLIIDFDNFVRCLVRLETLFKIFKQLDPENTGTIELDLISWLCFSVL
# T1 sequence (P04632 1-268 partner): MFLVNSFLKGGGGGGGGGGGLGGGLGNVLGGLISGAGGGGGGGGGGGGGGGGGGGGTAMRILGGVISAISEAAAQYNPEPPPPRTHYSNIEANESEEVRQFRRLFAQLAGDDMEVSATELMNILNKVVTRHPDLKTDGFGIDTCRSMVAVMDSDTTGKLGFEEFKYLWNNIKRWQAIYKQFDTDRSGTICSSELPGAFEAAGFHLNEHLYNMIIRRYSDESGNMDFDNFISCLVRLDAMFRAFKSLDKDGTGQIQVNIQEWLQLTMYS
# [1] = molecular target: 20S proteasome peptidylglutamyl-peptide hydrolyzing activity (Bos taurus, UniProt Q3MHN0)
# Experimental: (§1) Experiments involving the proteasome were performed as follows: 20S proteasome (˜5 ng/μl) in 10 mM Tris-HCl, pH 7.5, 1 mM EDTA was incubated at 25° C. in the presence of lactacystin or lactacystin analogs in DMSO or MeOH [not exceeding 5% (v/v)]. Aliquots for fluorescence assay were removed at various times following addition of compound and diluted in 10 mM Tris-HCl, pH 7.5, 1 mM EDTA containing fluorogenic peptide substrates (100 μM final). Suc-LLVY-AMC, Cbz-GGR-βNA and […] (AMC=7-amido-4-methylcoumarin; βNA=β-naphthylamide) were used to assay for the chymotrypsin-like, trypsin-like and peptidylglutamyl-peptide hydrolyzing activities, respectively.
# (§2) Fluorescent emission at 460 nm with excitation at 380 nm was measured for AMC-containing substrates, and emission at 410 nm with excitation at 335 nm was measured for βNA-containing substrates. The fluorescence assays were conducted at 25° C., each experiment was performed at least three times, and values represent mean±standard deviation.
# (§3) The reversibility of the inhibitory effects was assessed by measuring residual peptidase activity after removal of excess inhibitor by extensive serial dilution/ultrafiltration.
# Trypsin = molecular target: T2, Trypsin (Bos taurus, UniProt P00760); assay: Selectivity of protease inhibition: trypsin; assay type: biochemical; conditions: concentration not given
# T2 construct: gene PRSS1
# T2 sequence (P00760 24-246): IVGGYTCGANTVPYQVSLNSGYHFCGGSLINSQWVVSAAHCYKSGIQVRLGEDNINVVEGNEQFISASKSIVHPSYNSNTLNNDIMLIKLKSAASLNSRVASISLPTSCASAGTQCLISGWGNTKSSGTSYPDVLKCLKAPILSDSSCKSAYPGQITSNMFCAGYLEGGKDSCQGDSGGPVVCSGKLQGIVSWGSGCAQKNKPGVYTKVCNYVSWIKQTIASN
# Papain = molecular target: T3, Papain (Carica papaya, UniProt P00784); assay: Selectivity of protease inhibition: papain; assay type: biochemical; conditions: concentration not given
# T3 sequence (P00784 134-345): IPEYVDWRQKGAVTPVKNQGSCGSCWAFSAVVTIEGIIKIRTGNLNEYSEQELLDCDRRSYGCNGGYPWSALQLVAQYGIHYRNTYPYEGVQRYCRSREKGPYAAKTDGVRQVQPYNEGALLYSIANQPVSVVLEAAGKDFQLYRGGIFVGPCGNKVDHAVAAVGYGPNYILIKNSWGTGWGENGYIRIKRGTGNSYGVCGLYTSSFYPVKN
# Cathepsin B = Cathepsin B (Homo sapiens, UniProt P07858); assay: Selectivity of protease inhibition: cathepsin B; assay type: biochemical; conditions: concentration not given
# α-Chymotrypsin = α-Chymotrypsin (Bos taurus, UniProt P00766, DEL14-15/DEL147-148); assay: Selectivity of protease inhibition: α-chymotrypsin; assay type: biochemical; conditions: concentration not given
# [2] = molecular target: T4, 20S proteasome chymotrypsin-like activity (Bos taurus, UniProt Q32KL2); assay: Kinetics of inhibition of 20S proteasome chymotrypsin-like activity (Suc-LLVY-AMC); assay type: biochemical, bovine
# T4 construct: from tissue; host or cells: bovine brain
# Experimental: as §1, §2, §3
# p105 to p50 processing = assay: Proteasome dependent p105 to p50 processing in transfected COS cells (pulse-chase); assay type: cell-based, African green monkey; conditions: 1 h pretreatment, 2 hour chase
# Experimental: COS cells were plated onto 100 mm dishes, then, with DEAE-Destran, either mock transfected, or transfected with 3 μg of pcDNA plasmid containing the human p105 cDNA. Forty-eight hrs after transfection, cells were pretreated for 1 hour with 0.5% DMSO, 50 μM calpain inhibitor II, 50 μM MG132, or 10 μM β-lactone. Cells were then pulse labelled with 250 uCi/plate of ^35S-methionine/cysteine for 15 minutes, and either harvested immediately or followed by a 2 hour chase with excess unlabelled methionine and cysteine. Cells were then lysed with SDS/Tris, and proteins were immunoprecipitated with anti-p50 antibodies (recognize the N-terminal half of the p105 protein). These proteins were then separated on a 10% SDS-polyacrylamide gel, which was then fixed, dried, and exposed to autoradiographic film.
# [3] = molecular target: T5, 20S proteasome trypsin-like activity (Bos taurus, UniProt Q2TBP0); assay: Kinetics of inhibition of 20S proteasome trypsin-like activity (Cbz-GGR-βNA); assay type: biochemical, bovine
# T5 construct: from tissue; host or cells: bovine brain
# Experimental: as §1, §2, §3
# [4] = residual activity after removal of excess inhibitor by serial dilution/ultrafiltration
structure (smiles),measurement,setting,value
"CC(C)[C@H](O)[C@@]12NC(=O)[C@H](C)[C@@H]1OC2=O [β-Lactone, clasto-lactacystin β-lactone]",inhibition of calpain II activity,Calpain II,do not inhibit
same,"κassoc = κobs/[I], Peptidylglutamyl-peptide hydrolyzing activity (Cbz-LLE-βNA)","[1]; compound 50 μM, 25° C.",59 ± 17 s^−1M^−1
same,PGPH activity inhibited faster than by lactacystin,[1]; relative to lactacystin,15-20 times
same,reversibility of inhibition of PGPH activity,[1]; [4],reversibly
same,inhibition of trypsin activity,Trypsin,do not inhibit
same,inhibition of papain activity,Papain,do not inhibit
same,inhibition of cathepsin activity,Cathepsin B,do not inhibit
same,inhibition of α-chymotrypsin activity,α-Chymotrypsin,do not inhibit
same,"κassoc = κobs/[I], Chymotrypsin-like activity (Suc-LLVY-AMC)","[2]; compound 1 μM, 25° C.",3059 ± 478 s^−1M^−1
same,chymotrypsin-like activity inhibited faster than by lactacystin,[2]; relative to lactacystin,15-20 times
same,reversibility of inhibition of chymotrypsin-like activity,[2]; [4],irreversibly
same,processing of p105 to p50 (level of p50),p105 to p50 processing; 10 μM,only a slight effect
same,processing of p105 to p50 (appearance of p50),p105 to p50 processing; 50 μM,complete inhibition
same,"κassoc = κobs/[I], Trypsin-like activity (Cbz-GGR-βNA)","[3]; compound 5 μM, 25° C.",208 ± 21 s^−1M^−1
same,trypsin-like activity inhibited faster than by lactacystin,[3]; relative to lactacystin,15-20 times
same,reversibility of inhibition of trypsin-like activity,[3]; [4],irreversibly
